The values below come from patent publication US7674816B2, “Substituted melatonin derivatives, process for their preparation, and methods of use” (Abraxis BioScience, LLC, priority 2003, dated 2010).

Assay [1] deals with GABAA α-1 site. The experiment in a line: GABAA alpha 1 site competitive binding (3H-flunitrazepam). The conditions noted are these: Conc. 1.0E−4 M, bovine hippocampus. The source says: (§1) The binding profile of exemplary inventive compounds to neurotransmitter receptor sites is set forth below in Table 1. The characterization of the receptors, isolation of the membrane, and enzyme assay have been described in detail previously (see, e.g., Cole et al., Life Sci., 35, 1755 (1984), Lawrence et al., J. Neurochem., 45(3), 798 (1985), Sweetnam et al., Mol. Pharmacology, 29, 299 (1986), Zarkovsky et al., Neuropharmacology, 26 (7A), 737 (1987), Li et al., Eur. J. Pharmacology, 413, 63 (2001), and Markela et al., Mol. Pharmacology, 52, 380 (1997)).
(§2) The melatonin binding site on GABAA was defined using a series of competitive binding assays. Frozen bovine hippocampus was thawed and homogenized in 40 volumes of ice-cold 0.32 M sucrose. The suspension was centrifuged at 1000×g for 10 minutes at 4° C. The pellet was washed twice in assay buffer and reacted with radioactive ligand in presence or absence of melatonin at 10^−4 M final concentration. The amount of radioactivity remained on the Whatman filter following filtration of the reaction mix and two washes with assay buffer was determined using a liquid scintillation counter. Inhibition of radioactive ligand binding by melatonin represents the competitive binding of melatonin to the same site as the radioactive ligand. GABAA agonist site, GABAA α-1 site, GABAA α-5 site, GABAA α-6 site, and GABAA Cl channel were assayed using ^3H-GABA, ^3H-flunitrazepam, ^3H-RY80, ^3H-Ro 15-4513, and ^3H-TBOB.

In assay [2] the target is T1, GABAA α-5 site (Bos taurus, UniProt P22300+Q08E50).
T1 construct: Frozen bovine hippocampus was thawed and homogenized in 40 volumes of ice-cold 0.32 M sucrose; from tissue; host or cells: bovine hippocampus membranes (washed pellet)
T1 sequence (Q08E50 32-462): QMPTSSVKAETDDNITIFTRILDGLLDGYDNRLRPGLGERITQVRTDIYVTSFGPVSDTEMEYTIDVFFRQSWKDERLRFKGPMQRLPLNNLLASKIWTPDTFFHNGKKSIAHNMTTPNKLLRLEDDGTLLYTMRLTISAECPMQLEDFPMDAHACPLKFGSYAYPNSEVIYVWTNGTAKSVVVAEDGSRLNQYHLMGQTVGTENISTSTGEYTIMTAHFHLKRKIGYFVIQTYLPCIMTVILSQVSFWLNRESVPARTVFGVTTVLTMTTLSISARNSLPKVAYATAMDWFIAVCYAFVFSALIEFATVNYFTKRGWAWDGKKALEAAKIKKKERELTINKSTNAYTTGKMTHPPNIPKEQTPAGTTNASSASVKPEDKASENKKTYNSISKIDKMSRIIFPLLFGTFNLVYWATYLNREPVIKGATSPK
T1 sequence (P22300 40-475): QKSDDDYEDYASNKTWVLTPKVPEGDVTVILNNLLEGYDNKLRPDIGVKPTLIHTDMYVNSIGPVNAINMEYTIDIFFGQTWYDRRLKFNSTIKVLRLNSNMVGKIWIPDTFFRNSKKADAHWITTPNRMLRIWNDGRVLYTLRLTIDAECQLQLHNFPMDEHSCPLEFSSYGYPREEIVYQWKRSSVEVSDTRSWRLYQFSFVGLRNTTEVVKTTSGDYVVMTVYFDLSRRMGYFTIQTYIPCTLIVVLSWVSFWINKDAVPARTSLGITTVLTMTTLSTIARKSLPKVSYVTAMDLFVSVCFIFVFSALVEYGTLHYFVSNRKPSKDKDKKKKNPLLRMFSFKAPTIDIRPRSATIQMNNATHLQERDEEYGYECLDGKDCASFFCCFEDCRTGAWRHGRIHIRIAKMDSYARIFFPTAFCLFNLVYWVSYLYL
The experiment in a line: GABAA alpha 5 site competitive binding (3H-RY80). To be noted: bovine hippocampus. On the procedure: Frozen bovine hippocampus was thawed and homogenized in 40 volumes of ice-cold 0.32 M sucrose. The suspension was centrifuged at 1000×g for 10 minutes at 4° C. […] The amount of radioactivity remained on the Whatman filter following filtration of the reaction mix and two washes with assay buffer was determined using a liquid scintillation counter. Inhibition of radioactive ligand binding by melatonin represents the competitive binding of melatonin to the same site as the radioactive ligand.

Assay [3] concerns GABAA α-6 site. In words: GABAA alpha 6 site competitive binding (3H-Ro 15-4513). The conditions noted are these: Conc. 1.0E−4 M, bovine hippocampus.
Excerpt: as §1, §2

Assay [4] relates to GABAA Cl channel. The experiment in a line: GABAA Cl channel, TBOB site competitive binding (3H-TBOB), single concentration. To be noted: Conc. 1.0E−4 M, bovine hippocampus.
Excerpt: as §1, §2

For assay [5], the system named is GABAA agonist site. In words: GABAA agonist site competitive binding (3H-GABA). To be noted: Conc. 1.0E−3 M, bovine hippocampus.
Excerpt: as §1, §2

Assay [6] relates to GABAA α-1 site. In words: GABAA alpha 1 site competitive binding (3H-flunitrazepam). To be noted: Conc. 1.0E−3 M, bovine hippocampus.
Assay [7] deals with GABAA α-6 site. The experiment in a line: GABAA alpha 6 site competitive binding (3H-Ro 15-4513). To be noted: Conc. 1.0E−3 M, bovine hippocampus.
For assay [8], the system named is GABAA Cl channel. The experiment in a line: GABAA Cl channel, TBOB site competitive binding (3H-TBOB), single concentration. To be noted: Conc. 1.0E−3 M, bovine hippocampus.

With `COc1ccc(-c2[nH]c3ccc(OC)cc3c2CCNC(C)=O)cc1`, the “Specific binding, GABAA Alpha 1 site (inhibition of radioactive ligand binding)” value in assay [1] is −8.16%. In addition, the “Specific binding, GABAA Alpha 5 site (inhibition of radioactive ligand binding)” value in assay [2] (Conc. 1.0E−4 M) turned out to be 7.09%. Moreover, the “Specific binding, GABAA Alpha 6 site (inhibition of radioactive ligand binding)” value in assay [3] came to 6.68%. Moreover, the “Specific binding, GABAA Ion Channels Cl−, TBOB site (inhibition of radioactive ligand binding)” value in assay [4] is reported as 108.82%.
In the case of `COc1cc2c(CCNC(C)=O)c[nH]c2cc1Cl` [6-Chloromelatonin], the “Specific binding, GABAA Agonist site (inhibition of radioactive ligand binding)” value in assay [5] is −13.74%. Also, the “Specific binding, GABAA Alpha 5 site (inhibition of radioactive ligand binding)” value in assay [2] (Conc. 1.0E−3 M) is on record as 13.95%. In assay [6], the “Specific binding, GABAA Alpha 1 site (inhibition of radioactive ligand binding)” value is 12.49%. Also, the “Specific binding, GABAA Alpha 6 site (inhibition of radioactive ligand binding)” value in assay [7] was −7.74%. For the same compound, in assay [8], the “Specific binding, GABAA Ion Channels Cl−, TBOB site (inhibition of radioactive ligand binding)” value came to 43.63%.
